# Data taken from ChEMBL document CHEMBL1156297, “Sulfonamide linked neoglycoconjugates--a new class of inhibitors for cancer-associated carbonic anhydrases” (J Med Chem, 2010).
# Columns and labels:
# Carbonic anhydrase 1 = Carbonic anhydrase 1 (Homo sapiens, UniProt P00915)
# Carbonic anhydrase 9 = Carbonic anhydrase 9 (Homo sapiens, UniProt Q16790)
# Carbonic anhydrase 2 = Carbonic anhydrase 2 (Homo sapiens, UniProt P00918)
# Carbonic anhydrase 12 = Carbonic anhydrase 12 (Homo sapiens, UniProt O43570)
# [1] = Permeability by PAMPA; type: ADME; settings: read-out: permeability
# Carbonic anhydrase 12, sequence (O43570 whole entry): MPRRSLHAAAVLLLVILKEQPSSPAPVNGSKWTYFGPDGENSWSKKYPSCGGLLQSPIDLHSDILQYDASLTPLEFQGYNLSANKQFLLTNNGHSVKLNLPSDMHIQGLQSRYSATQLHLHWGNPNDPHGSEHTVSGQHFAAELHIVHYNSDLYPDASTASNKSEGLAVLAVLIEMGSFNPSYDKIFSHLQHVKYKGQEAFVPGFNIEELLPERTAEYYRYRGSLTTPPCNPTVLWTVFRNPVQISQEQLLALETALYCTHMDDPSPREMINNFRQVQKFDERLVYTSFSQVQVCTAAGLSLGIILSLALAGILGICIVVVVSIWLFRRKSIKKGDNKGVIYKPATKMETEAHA
# Carbonic anhydrase 1, sequence (P00915 whole entry): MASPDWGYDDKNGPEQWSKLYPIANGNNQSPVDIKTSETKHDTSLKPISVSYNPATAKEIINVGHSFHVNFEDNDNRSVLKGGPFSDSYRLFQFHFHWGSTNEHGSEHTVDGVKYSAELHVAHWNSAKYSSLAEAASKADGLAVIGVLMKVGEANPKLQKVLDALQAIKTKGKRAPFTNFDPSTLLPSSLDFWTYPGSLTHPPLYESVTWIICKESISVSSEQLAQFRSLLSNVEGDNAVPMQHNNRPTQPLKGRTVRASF
SMILES,Ki (Carbonic anhydrase 1),Ki (Carbonic anhydrase 9),Ki (Carbonic anhydrase 2),Ki (Carbonic anhydrase 12),Papp [1]
NS(=O)(=O)c1ccc(CNS(=O)(=O)[C@@H]2O[C@H](C(=O)O)[C@H](O)[C@H](O)[C@H]2O)cc1,81 nM,97 nM,7.1 nM,8.9 nM,–
NS(=O)(=O)c1ccc(CNS(=O)(=O)[C@@H]2O[C@H](CO)[C@@H](O[C@@H]3O[C@H](CO)[C@H](O)[C@H](O)[C@H]3O)[C@H](O)[C@H]2O)cc1,107 nM,106 nM,5 nM,8.9 nM,–
CC(=O)OC[C@H]1O[C@@H](SNCc2ccc(S(N)(=O)=O)cc2)[C@H](OC(C)=O)[C@@H](OC(C)=O)[C@@H]1OC(C)=O,4160 nM,–,14.8 nM,11.5 nM,–
NS(=O)(=O)c1ccc(CNS(=O)(=O)[C@@H]2O[C@H](CO)[C@@H](O[C@H]3O[C@H](CO)[C@@H](O)[C@H](O)[C@H]3O)[C@H](O)[C@H]2O)cc1,101 nM,98 nM,4.8 nM,8.2 nM,–
COC(=O)[C@H]1O[C@@H](S(=O)(=O)NCCc2ccc(S(N)(=O)=O)cc2)[C@H](OC(C)=O)[C@@H](OC(C)=O)[C@H]1OC(C)=O,3210 nM,95 nM,62.7 nM,9.7 nM,–
NS(=O)(=O)c1ccc(CCNS(=O)(=O)[C@@H]2O[C@H](CO)[C@@H](O)[C@H](O)[C@H]2O)cc1,88 nM,84 nM,7.8 nM,7.6 nM,–
NS(=O)(=O)c1ccc(CCNS(=O)(=O)[C@@H]2O[C@H](CO)[C@H](O)[C@H](O)[C@H]2O)cc1,82 nM,100 nM,7.6 nM,7.8 nM,–
NS(=O)(=O)c1ccc(CCNS(=O)(=O)[C@@H]2O[C@H](C(=O)O)[C@H](O)[C@H](O)[C@H]2O)cc1,97 nM,96 nM,4.7 nM,9.5 nM,–
NS(=O)(=O)c1ccc(CCNS(=O)(=O)[C@@H]2O[C@H](CO)[C@@H](O[C@@H]3O[C@H](CO)[C@H](O)[C@H](O)[C@H]3O)[C@H](O)[C@H]2O)cc1,78 nM,100 nM,4.6 nM,9.1 nM,–
NS(=O)(=O)c1ccc(CCNS(=O)(=O)[C@@H]2O[C@H](CO)[C@@H](O[C@H]3O[C@H](CO)[C@@H](O)[C@H](O)[C@H]3O)[C@H](O)[C@H]2O)cc1,102 nM,81 nM,5.2 nM,7.3 nM,–
CC(=O)OC[C@H]1O[C@@H](S(=O)(=O)NCCc2ccc(S(N)(=O)=O)cc2)[C@H](OC(C)=O)[C@@H](OC(C)=O)[C@@H]1OC(C)=O,90 nM,–,15.4 nM,9.5 nM,–
CC(=O)OC[C@H]1O[C@@H](S(=O)(=O)NCCc2ccc(S(N)(=O)=O)cc2)[C@H](OC(C)=O)[C@@H](OC(C)=O)[C@H]1OC(C)=O,4710 nM,–,73.8 nM,9.4 nM,–
CC(=O)OC[C@H]1O[C@@H](O[C@H]2[C@H](OC(C)=O)[C@@H](OC(C)=O)[C@H](SNCc3ccc(S(N)(=O)=O)cc3)O[C@@H]2COC(C)=O)[C@H](OC(C)=O)[C@@H](OC(C)=O)[C@H]1OC(C)=O,6830 nM,–,15.5 nM,9.8 nM,–
CC(=O)OC[C@H]1O[C@@H](SNCc2ccc(S(N)(=O)=O)cc2)[C@H](OC(C)=O)[C@@H](OC(C)=O)[C@@H]1O[C@H]1O[C@H](COC(C)=O)[C@@H](OC(C)=O)[C@H](OC(C)=O)[C@H]1OC(C)=O,3460 nM,–,13.1 nM,8.5 nM,–
CC(=O)OC[C@H]1O[C@@H](SNCCc2ccc(S(N)(=O)=O)cc2)[C@H](OC(C)=O)[C@@H](OC(C)=O)[C@@H]1OC(C)=O,3890 nM,97 nM,14.5 nM,13.6 nM,–
CC(=O)OC[C@H]1O[C@@H](SNCCc2ccc(S(N)(=O)=O)cc2)[C@H](OC(C)=O)[C@@H](OC(C)=O)[C@H]1OC(C)=O,4100 nM,107 nM,13.3 nM,16.7 nM,–

SMILES,Ki (Carbonic anhydrase 1),Ki (Carbonic anhydrase 9),Ki (Carbonic anhydrase 2),Ki (Carbonic anhydrase 12),Papp [1]
COC(=O)[C@H]1O[C@@H](SNCCc2ccc(S(N)(=O)=O)cc2)[C@H](OC(C)=O)[C@@H](OC(C)=O)[C@H]1OC(C)=O,110 nM,–,16.2 nM,9.5 nM,–
NS(=O)(=O)c1ccc(CNS(=O)(=O)[C@@H]2O[C@H](CO)[C@@H](O)[C@H](O)[C@H]2O)cc1,102 nM,–,9.1 nM,8.3 nM,< 0.05 ×10⁻⁶ cm/s
CC(=O)OC[C@H]1O[C@@H](O[C@H]2[C@H](OC(C)=O)[C@@H](OC(C)=O)[C@H](S(=O)(=O)NCc3ccc(S(N)(=O)=O)cc3)O[C@@H]2COC(C)=O)[C@H](OC(C)=O)[C@@H](OC(C)=O)[C@H]1OC(C)=O,4930 nM,–,58.8 nM,10.4 nM,–
CC(=O)OC[C@H]1O[C@@H](S(=O)(=O)NCc2ccc(S(N)(=O)=O)cc2)[C@H](OC(C)=O)[C@@H](OC(C)=O)[C@@H]1O[C@H]1O[C@H](COC(C)=O)[C@@H](OC(C)=O)[C@H](OC(C)=O)[C@H]1OC(C)=O,2040 nM,–,62.5 nM,9.1 nM,–
NS(=O)(=O)c1ccc(CNS(=O)(=O)[C@@H]2O[C@H](CO)[C@H](O)[C@H](O)[C@H]2O)cc1,87 nM,–,7.8 nM,8.7 nM,–
CC(=O)OC[C@H]1O[C@@H](O[C@H]2[C@H](OC(C)=O)[C@@H](OC(C)=O)[C@H](SNCCc3ccc(S(N)(=O)=O)cc3)O[C@@H]2COC(C)=O)[C@H](OC(C)=O)[C@@H](OC(C)=O)[C@H]1OC(C)=O,8040 nM,97 nM,12 nM,8.7 nM,–
CC(=O)OC[C@H]1O[C@@H](SNCCc2ccc(S(N)(=O)=O)cc2)[C@H](OC(C)=O)[C@@H](OC(C)=O)[C@@H]1O[C@H]1O[C@H](COC(C)=O)[C@@H](OC(C)=O)[C@H](OC(C)=O)[C@H]1OC(C)=O,6750 nM,94 nM,15.1 nM,8.8 nM,–
CC(=O)OC[C@H]1O[C@@H](SNCc2ccc(S(N)(=O)=O)cc2)[C@H](OC(C)=O)[C@@H](OC(C)=O)[C@H]1OC(C)=O,120 nM,–,13.4 nM,15.5 nM,–
COC(=O)[C@H]1O[C@@H](SNCc2ccc(S(N)(=O)=O)cc2)[C@H](OC(C)=O)[C@@H](OC(C)=O)[C@H]1OC(C)=O,110 nM,102 nM,18.1 nM,15.6 nM,–
CC(=O)OC[C@H]1O[C@@H](O[C@H]2[C@H](OC(C)=O)[C@@H](OC(C)=O)[C@H](S(=O)(=O)NCCc3ccc(S(N)(=O)=O)cc3)O[C@@H]2COC(C)=O)[C@H](OC(C)=O)[C@@H](OC(C)=O)[C@H]1OC(C)=O,3460 nM,97 nM,56.2 nM,9.5 nM,–
CC(=O)OC[C@H]1O[C@@H](S(=O)(=O)NCCc2ccc(S(N)(=O)=O)cc2)[C@H](OC(C)=O)[C@@H](OC(C)=O)[C@@H]1O[C@H]1O[C@H](COC(C)=O)[C@@H](OC(C)=O)[C@H](OC(C)=O)[C@H]1OC(C)=O,5570 nM,93 nM,15.2 nM,8.8 nM,–
CC(=O)OC[C@H]1O[C@@H](S(=O)(=O)NCc2ccc(S(N)(=O)=O)cc2)[C@H](OC(C)=O)[C@@H](OC(C)=O)[C@@H]1OC(C)=O,120 nM,–,14.8 nM,9.3 nM,< 0.05 ×10⁻⁶ cm/s
CC(=O)OC[C@H]1O[C@@H](S(=O)(=O)NCc2ccc(S(N)(=O)=O)cc2)[C@H](OC(C)=O)[C@@H](OC(C)=O)[C@H]1OC(C)=O,110 nM,–,16.3 nM,9.9 nM,–
COC(=O)[C@H]1O[C@@H](S(=O)(=O)NCc2ccc(S(N)(=O)=O)cc2)[C@H](OC(C)=O)[C@@H](OC(C)=O)[C@H]1OC(C)=O,2400 nM,–,65.8 nM,9.8 nM,–
CC(=O)Nc1nnc(S(N)(=O)=O)s1 [ACETAZOLAMIDE],–,–,–,–,< 0.15 ×10⁻⁶ cm/s
